≈ marks a conversion by molar mass, not a printed value.
Legend:
Escherichia coli [1] = experiment: Compound was evaluated for antibacterial activity against Escherichia coli in the range of 75-100 uM; Exerted a moderate antibacterial effect; assay type: functional
Escherichia coli [2] = experiment: Compound was evaluated for antibacterial activity against Escherichia coli; assay type: functional
Staphylococcus capitis = experiment: Compound was evaluated for antibacterial activity against Staphylococcus capitis; assay type: functional
[3] = target: Peptide deformylase (Escherichia coli) (UniProt P0A6K3); experiment: Compound was evaluated for inhibition of peptide deformylase, PDF.Ni of Escherichia coli at concentration of 1 uM
Sequence of Peptide deformylase (Escherichia coli) (P0A6K3 whole entry, looked up): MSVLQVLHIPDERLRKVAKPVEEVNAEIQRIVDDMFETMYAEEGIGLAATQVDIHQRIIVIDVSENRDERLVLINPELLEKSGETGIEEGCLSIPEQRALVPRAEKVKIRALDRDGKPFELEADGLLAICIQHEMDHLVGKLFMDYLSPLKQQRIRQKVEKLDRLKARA

Structure (SMILES)	MIC (Escherichia coli [1])	MIC (Escherichia coli [2])	MIC (Staphylococcus capitis)	inhibition [3]
CCCC[C@H](CS)C(=O)N[C@@H](CCCCN)C(=O)Nc1ccc([N+](=O)[O-])cc1	75 µM (≈ 30.8 µg/mL)	–	–	–
CCCCC(C[PH](=O)O)C(=O)N[C@H](C(=O)N(C)C)C(C)(C)C (stereo partly specified)	–	> 200 µM	> 200 µM	–
CCCC[C@H](CN(O)C(C)=O)C(=O)N[C@H](C(=O)N(C)C)C(C)(C)C	–	> 200 µM	> 200 µM	60%
CCCC[C@H](CC(=O)NN)C(=O)N[C@H](C(=O)N(C)C)C(C)(C)C	–	> 200 µM	> 200 µM	–
CCCC[C@H](NC(=O)NO)C(=O)N[C@H](C(=O)N(C)C)C(C)(C)C	–	> 200 µM	> 200 µM	40%
CCCC[C@H](CC(=O)O)C(=O)N[C@H](C(=O)N(C)C)C(C)(C)C	–	> 200 µM	> 200 µM	–
CCCCC(CP(=O)(O)O)C(=O)N[C@H](C(=O)N(C)C)C(C)(C)C (stereo partly specified)	–	> 200 µM	> 200 µM	–

Next, values leading:

MIC (Escherichia coli [1])	MIC (Escherichia coli [2])	MIC (Staphylococcus capitis)	inhibition [3]	Structure (SMILES)
–	> 200 µM	> 200 µM	20%	CCCC[C@H](OC(=O)NO)C(=O)N[C@H](C(=O)N(C)C)C(C)(C)C
–	> 200 µM	> 200 µM	–	CCCC[C@H](CNC=O)C(=O)N[C@H](C(=O)N(C)C)C(C)(C)C
–	> 200 µM	> 200 µM	–	CCCC[C@H](CN(O)C(N)=O)C(=O)N[C@H](C(=O)N(C)C)C(C)(C)C
–	> 200 µM	> 200 µM	–	CCCC[C@H](NCC(=O)O)C(=O)N[C@H](C(=O)N(C)C)C(C)(C)C
–	> 200 µM	> 200 µM	–	CCCCC(CC(=N)NO)C(=O)N[C@H](C(=O)N(C)C)C(C)(C)C (stereo partly specified)
–	> 200 µM	> 200 µM	10%	CCCC[C@H](CS)C(=O)N[C@H](C(=O)N(C)C)C(C)(C)C
–	25 µM (≈ 8.24 µg/mL)	100 µM (≈ 32.9 µg/mL)	–	CCCC[C@H](CC(=O)NO)C(=O)N[C@H](C(=O)N(C)C)C(C)(C)C

— ChEMBL document CHEMBL1135853, “Structure-activity relationships of the peptide deformylase inhibitor BB-3497: modification of the metal binding group” (Bioorg Med Chem Lett, 2002)
